US20040058428A1 (priority 2002, published 2004)

Experiments:
E. coli = assay type: cell-based, Escherichia coli
B. anthracis = assay type: cell-based, Bacillus anthracis
Staphylococcus aureus = assay type: cell-based
[1] = tested on: non-anthracis gram positive species; assay type: cell-based
mold colonies = assay type: cell-based
[2] = tested on: 13 diverse bacterial stock species; assay type: cell-based
B. thuringiensis = assay type: cell-based
B. megaterium = assay type: cell-based
Citrobacter freundii = assay type: cell-based
B. subtilis = assay type: cell-based
Klebsiella pneumoniae = assay type: cell-based
B. cereus strains = assay type: cell-based

Compound: [H]/N=C(/N)N[C@H]1[C@H](O)[C@@H](O)[C@H](O[C@@H]2O[C@@H](C)[C@](O)(C=O)[C@H]2O[C@@H]2O[C@@H](CO)[C@H](O)[C@@H](O)[C@@H]2NC)[C@@H](N/C(N)=N\[H])[C@@H]1O [streptomycin]
- growth of E. coli strains (E. coli): inhibited

Compound: polymyxin B sulfate
- growth of E. coli strains (E. coli): not inhibited

Compound: lysostaphin
- effect on B. anthracis growth (B. anthracis): without affecting
- effect on Staphylococcus aureus growth (Staphylococcus aureus): severely retarded

Compound: CC(=O)[O-].[Tl+] [thallous acetate]
- B. anthracis growth and colony formation (B. anthracis): allowed B. anthracis to grow readily and form colonies
- delay of appearance of visible B. anthracis colonies (B. anthracis): delayed approximately one day
- restriction of growth of non-anthracis gram positive species including some B. cereus strains [1]: not sufficiently restrictive
- restriction of non-anthracis gram positive spore forming species (including some B. cereus strains) [1]: adequately restrictive
- susceptibility of Staphylococcus aureus (Staphylococcus aureus): completely resistant

Compound: O=C([O-])CN(CCN(CC(=O)O)CC(=O)O)CC(=O)[O-].[Na+].[Na+] [EDTA, disodium ethylenediaminetetraacetate]
- effect on B. anthracis growth (B. anthracis): undesirably inhibiting
- effect on Staphylococcus aureus growth (Staphylococcus aureus): no effect

Compound: C[C@@H]1C[C@@H]([C@H](O)CC2CC(=O)NC(=O)C2)C(=O)[C@@H](C)C1 [cycloheximide]
- effect on mold contamination (mold colonies): eliminated all mold contamination
- effect on pattern of bacterial growth [2]: did not alter the pattern of bacterial growth

Compound: CO/N=C(\C(=O)N[C@@H]1C(=O)N2C(C(=O)O)=C(COC(C)=O)CS[C@H]12)c1csc(N)n1 [cefotaxime]
- growth of B. thuringiensis (B. thuringiensis): inhibited
- growth of B. megaterium (B. megaterium): inhibited
- growth of Citrobacter freundii (Citrobacter freundii): inhibited
- appearance of B. anthracis colonies (B. anthracis): failed to appear
- growth of B. subtilis (B. subtilis): inhibited
- growth of Klebsiella pneumoniae (Klebsiella pneumoniae): inhibited
- growth of E. coli (E. coli): inhibited
- growth of some strains of B. cereus (B. cereus strains): grow to form colonies
- growth of Staphylococcus aureus (Staphylococcus aureus): inhibited
